Test results from ChEMBL document CHEMBL3046079, “Synthesis, herbicidal activity, and mode of action of IR 5790” (J Agric Food Chem, 2001).
Values after ≈ are worked out from the molar mass of the structure shown.

Key:
[1] = Solubility of the compound in organis solvent; assay type: physicochemical
[2] = Aqueous solubility of the compound; assay type: physicochemical; conditions: water
[3] = target: T1, Putative protoporphyrinogen IX oxidase (Cucumis sativus) (UniProt C6L817); assay: Inhibition of protoporphyrin oxidase in Cucumis sativus (cucumber) cotyledon disc assessed as increase in extraplastidic protoporphyrin 9 accumulation at 100 uM incubated in dim light for 2 hr by HPLC analysis relative to control
T1 sequence (whole entry): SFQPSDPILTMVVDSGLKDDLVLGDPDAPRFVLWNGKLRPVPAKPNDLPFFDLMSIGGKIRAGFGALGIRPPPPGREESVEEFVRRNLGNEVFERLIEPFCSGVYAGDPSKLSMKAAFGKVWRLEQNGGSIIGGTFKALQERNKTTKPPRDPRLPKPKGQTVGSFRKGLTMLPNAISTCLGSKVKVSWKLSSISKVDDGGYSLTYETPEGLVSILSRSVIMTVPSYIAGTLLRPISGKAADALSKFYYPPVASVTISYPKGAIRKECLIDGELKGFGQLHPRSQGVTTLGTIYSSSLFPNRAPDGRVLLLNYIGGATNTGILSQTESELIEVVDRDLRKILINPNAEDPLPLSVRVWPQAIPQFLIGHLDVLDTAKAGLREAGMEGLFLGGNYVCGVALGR

[4] = target: T1, Putative protoporphyrinogen IX oxidase (Cucumis sativus); assay: Inhibition of protoporphyrin oxidase in Cucumis sativus (cucumber) cotyledon disc assessed as increase in extraplastidic protoporphyrin 9 accumulation at 10 uM incubated in dim light for 2 hr by HPLC analysis relative to control

Structure (SMILES)	solubility [1]	solubility [2]	fold change (FC) [3]	fold change (FC) [4]
C#CCOc1cc(-n2nc(C(C)(C)C)oc2=O)c(Cl)cc1Cl [OXADIARGYL]	> 250000 µg/mL	0.37 µg/mL (≈ 1.08 µM)		
COC(=O)c1cc(Oc2ccc(C(F)(F)F)cc2Cl)ccc1[N+](=O)[O-]			390	369
CC(C)Oc1cc(-n2nc(C(C)(C)C)oc2=O)c(Cl)cc1Cl [OXADIAZON]	> 250000 µg/mL	0.7 µg/mL (≈ 2.03 µM)		
